ChEMBL document CHEMBL2424639, “Synthesis and pharmacological activities of some novel 5-chloro-N-(4-(1,5-(disubstituted)-4,5-dihydro-1H-pyrazol-3-yl)phenyl)-2-methoxybenzamide derivatives” (Med Chem Res, 2013)

Assays:
Rattus norvegicus [1] = experiment: In vivo inhibition of PGE2 in albino rat plasma at 25 mg/kg, po administered 1 hr prior to carrageenan challenge measured after 4 hrs by EIA relative to control; type: functional
Rattus norvegicus [2] = experiment: In vivo inhibition of PGE2 in albino rat plasma at 50 mg/kg, po administered 1 hr prior to carrageenan challenge measured after 4 hrs by EIA relative to control; type: functional
Rattus norvegicus [3] = experiment: Antiinflammatory activity in albino rat assessed as protection against carrageenan-induced paw edema at 25 mg/kg, po administered 1 hr prior to carrageenan challenge measured after 4 hrs relative to control; type: functional
Rattus norvegicus [4] = experiment: Antiinflammatory activity in albino rat assessed as protection against carrageenan-induced paw edema at 50 mg/kg, po administered 1 hr prior to carrageenan challenge measured after 4 hrs relative to control; type: functional
[5] = Acute toxicity in rat; type: organism-based; conditions: in vivo

SMILES | inhibition in vivo at 25 mg/kg (Rattus norvegicus [1]) [%] | inhibition in vivo at 50 mg/kg (Rattus norvegicus [2]) [%] | Activity (Rattus norvegicus [3]) [%] | Activity (Rattus norvegicus [4]) [%] | LD50 [5] [mg/kg]
COc1ccc(C2CC(c3ccc(NC(=O)c4cc(Cl)ccc4OC)cc3)=NN2)cc1 (centres undefined) | 70.5 | 83 | 82.55 | 89 | –
COc1ccc(Cl)cc1C(=O)Nc1ccc(C2=NNC(c3ccccc3[N+](=O)[O-])C2)cc1 (centres undefined) | 72.3 | 84.5 | 88.3 | 90.89 | –
COc1ccc(Cl)cc1C(=O)Nc1ccc(C2=NNC(c3ccc([N+](=O)[O-])cc3)C2)cc1 (centres undefined) | 76.3 | 86.3 | 91.25 | 95.3 | –
COc1ccc(C2CC(c3ccc(NC(=O)c4cc(Cl)ccc4OC)cc3)=NN2C(C)=O)cc1 (centres undefined) | 79.4 | 88.4 | 86 | 90.2 | –
COc1ccc(Cl)cc1C(=O)Nc1ccc(C2=NN(C(C)=O)C(c3ccccc3[N+](=O)[O-])C2)cc1 (centres undefined) | 77.2 | 87.2 | 92.16 | 96.15 | –
COc1ccc(Cl)cc1C(=O)Nc1ccc(C2=NN(CN3CCOCC3)C(c3ccc([N+](=O)[O-])cc3)C2)cc1 (centres undefined) | 80.1 | 90.1 | 94.13 | 97.9 | –
COc1ccc(/C=C/C(=O)c2ccc(NC(=O)c3cc(Cl)ccc3OC)cc2)cc1 | 68.1 | 79.2 | 79 | 93.1 | 2230
COc1ccc(Cl)cc1C(=O)Nc1ccc(C(=O)/C=C/c2ccccc2[N+](=O)[O-])cc1 | 69.1 | 80.4 | 81.8 | 85.85 | 2400
COc1ccc(Cl)cc1C(=O)Nc1ccc(C(=O)/C=C/c2ccc([N+](=O)[O-])cc2)cc1 | – | – | – | – | 1830
COc1ccc(C2CC(c3ccc(NC(=O)c4cc(Cl)ccc4OC)cc3)=NN2C)cc1 (centres undefined) | 69.6 | 81.8 | 88.1 | 93.15 | 2390
COc1ccc(Cl)cc1C(=O)Nc1ccc(C2=NN(C)C(c3ccccc3[N+](=O)[O-])C2)cc1 (centres undefined) | 83.8 | 91.2 | 96.45 | 99.5 | 2350
COc1ccc(Cl)cc1C(=O)Nc1ccc(C2=NN(C)C(c3ccc([N+](=O)[O-])cc3)C2)cc1 (centres undefined) | 71.3 | 83.2 | 93 | 97.4 | 2540
COc1ccc(C2CC(c3ccc(NC(=O)c4cc(Cl)ccc4OC)cc3)=NN2c2ccccc2)cc1 (centres undefined) | 82.3 | 90.2 | 94.82 | 98 | 2390
COc1ccc(Cl)cc1C(=O)Nc1ccc(C2=NN(c3ccccc3)C(c3ccccc3[N+](=O)[O-])C2)cc1 (centres undefined) | 73.3 | 84.3 | 80.18 | 88.4 | 2390
COc1ccc(Cl)cc1C(=O)Nc1ccc(C2=NN(c3ccccc3)C(c3ccc([N+](=O)[O-])cc3)C2)cc1 (centres undefined) | 75.3 | 85.3 | 90.85 | 94.1 | 2380
C[C@]12C=CC(=O)C=C1CC[C@@H]1[C@@H]2[C@@H](O)C[C@@]2(C)[C@H]1CC[C@]2(O)C(=O)CO [PREDNISOLONE] | 78.1 | 92.1 | 80.4 | 92.1 | –
